In patent EP1828393B1 (priority 2004, dated 2006):

Assay: Miscibility of glycolonitrile with water
Format: physicochemical
Conditions: 25 °C
Description: As the reaction progresses, the α-hydroxynitrile dissolves into the aqueous phase, and eventually a single phase product mixture is obtained. The reaction may also be run by adding the α-hydroxynitrile to the reaction mixture at a rate approximately equal to the enzymatic hydrolysis reaction rate, thereby maintaining a single-phase aqueous reaction mixture, and avoiding the potential problem of substrate inhibition of the enzyme at high starting material concentrations.

Q: Which miscibility with water does the source give for `N#CCO` [Glycolonitrile, glycolonitrile] here?
A: Its miscibility with water is “completely miscible with water in all proportions”.
